From publication PMC4453016, “Novel Bifunctional Cyclic Chelator for ^89Zr Labeling–Radiolabeling and Targeting Properties of RGD Conjugates” (Molecular Pharmaceutics, 2015)
“And” between values parts separate entries of the source, which are not always exact repeats. Equal entries are not always repeated.

Assays:
[1] = Stability assay in 1000-fold molar excess of EDTA solution (ITLC); type: physicochemical; settings: for % intact starting species by incubation time: competitor EDTA 1000-fold excess, 37 °C, n = 3
Experimental: (§1) Determination of the stability of [^89Zr]DFO, [^89Zr]TAFC, and [^89Zr]FSC-RGD conjugates was carried out by incubating the radioligands in PBS, 1000-fold molar excess of EDTA solution with different pH (pH 7 and pH 6; radioligand vs EDTA: 25 μM vs 25 mM) as well as in human serum for 7 days at 37 °C, respectively. At selected time points three aliquots of PBS and EDTA solution were analyzed directly via ITLC, while the three serum aliquots were mixed with 500 μL of CH3CN, vortexed, and centrifuged at 20,000 rcf for 2 min prior to analysis.

[2] = Transchelation study with 1000-fold molar excess of TAFC or DFO (RP-HPLC); type: physicochemical; settings: competitor DFO 1000-fold excess, RT, n = 3
Experimental: [^89Zr]DFO and [^89Zr]TAFC (50 μL each) were mixed with a 1000-fold molar excess of either TAFC or DFO for 7 days at RT. At selected time points aliquots of the solutions were analyzed directly via RP-HPLC. ([^89Zr]DFO tR = 4.8 min; [^89Zr]TAFC tR = 5.9 min). The transchelation was determined by the ratio of [^89Zr]DFO and [^89Zr]TAFC. Three replicates were analyzed for each radioligand.

[3] = Stability assay in PBS and human serum; type: physicochemical; settings: period of 7 days, 37 °C; no demetalation was observed
Experimental: as §1

[4] = Biodistribution of [^89Zr]TAFC in healthy mice; type: in vivo, BALB/c mice; settings: normal mice, i.v., 6 h p.i., n = 4
Experimental: For the evaluation of biodistribution, four healthy female BALB/c mice (Charles River Laboratories, Sulzfeld, GER) were intravenously injected with [^89Zr]TAFC (∼1.5 MBq/mouse, ∼4 μg of precursor) into the tail vein and sacrificed at 6 h postinjection (p.i.). For the evaluation of tumor uptake of [^89Zr]FSC(succ-RGD)3 female, athymic BALB/c nude mice (Charles River Laboratories) were used. For the induction of tumor xenografts mice were injected subcutaneously with 5 × 10^6 αvβ3 integrin positive M21 cells into the right hind limb and with 5 × 10^6 αvβ3 integrin negative M21-L cells (negative control) into the left hind limb of the same mouse (n = 4). The tumors were allowed to grow until they had reached a volume of 0.3 to 0.6 cm^3. On the day of the experiment [^89Zr]FSC(succ-RGD)3 (∼0.5 MBq/mouse, ∼0.5 μg of peptide) was intravenously injected in the lateral tail vein. Mice were sacrificed by cervical dislocation at 1, 2, and 4 h after injection. Organs (spleen, pancreas, stomach, intestine, kidney, liver, heart, and lung), blood, muscle tissue, bone, and tumors were dissected and weighted. As a comparison, four tumor-bearing mice were intravenously injected in the tail vein with [^68Ga]FSC(succ-RGD)3 (∼0.5 MBq/mouse, ∼0.5 μg of precursor) and sacrificed at 1 h p.i. Activity of the different samples was measured in the gamma counter. Results were expressed as percentage of injected dose per gram tissue (% ID/g).

[5] = Distribution coefficient (logD), octanol/PBS; settings: pH 7.4
[6] = Protein binding assay in fresh human serum (size exclusion spin column); settings: 37 °C, incubation time 168 h

CC(=O)NC1CCCN(O)C(=O)/C=C(/C)CCOC(=O)C(NC(C)=O)CCCN(O)C(=O)/C=C(/C)CCOC(=O)C(NC(C)=O)CCCN(O)C(=O)/C=C(/C)CCOC1=O (centres unmarked) [[^89Zr]TAFC, triacetylfusarinine C, metal not drawn]
transchelation in EDTA solution ([1]; 1000-fold molar excess of EDTA, pH 7, after 7 days, ITLC): no transchelation
transchelation in an EDTA challenging experiment ([1]; after 7 days): 3–5%
% intact starting species by incubation time ([1]; pH 6, 1 h): 99.0 ± 0.1%
% intact starting species by incubation time ([1]; pH 6, 4 h): 98.1 ± 0.2%
% intact starting species by incubation time ([1]; pH 6, 1 d): 96.0 ± 0.6%
% intact starting species by incubation time ([1]; pH 6, 3 d): 94.7 ± 0.3%
% intact starting species by incubation time ([1]; pH 6, 5 d): 95.9 ± 0.3%
% intact starting species by incubation time ([1]; pH 6, 7 d): 94.4 ± 0.5%
% intact starting species by incubation time ([1]; pH 7, 1 h): 99.6 ± 0.1%
% intact starting species by incubation time ([1]; pH 7, 4 h): 99.6 ± 0.1%
% intact starting species by incubation time ([1]; pH 7, 1 d): 99.3 ± 0.2%
% intact starting species by incubation time ([1]; pH 7, 3 d): 96.9 ± 0.3%
% intact starting species by incubation time ([1]; pH 7, 5 d): 98.3 ± 0.1%
% intact starting species by incubation time ([1]; pH 7, 7 d): 97.2 ± 0.2%
% intact starting species by incubation time ([2]; pH 6, 1 h): 96.7 ± 0.2%
% intact starting species by incubation time ([2]; pH 6, 4 h): 91.9 ± 0.3%
% intact starting species by incubation time ([2]; pH 6, 1 d): 74.2 ± 3.0%
% intact starting species by incubation time ([2]; pH 6, 3 d): 53.0 ± 4.1%
% intact starting species by incubation time ([2]; pH 6, 5 d): 43.3 ± 3.5%
% intact starting species by incubation time ([2]; pH 6, 7 d): 40% and 39.8 ± 2.0%
stability in PBS and human serum [3]: high stability
blood activity [4]: 0.05 ± 0.01 % ID/g
renal retention (kidney) [4]: 0.86 ± 0.48 % ID/g
uptake of bone [4]: 0.04 ± 0.02 % ID/g
logD [5]: -2
protein binding (%) [6]: 6.8 ± 0.5%
